Measured values reported in publication PMC9030254, “Target Hopping from Protein Kinases to PXR: Identification of Small-Molecule Protein Kinase Inhibitors as Selective Modulators of Pregnane X Receptor from TüKIC Library” (Cells, 2022).

Key:
Experiment in all cases: Kinase profiling
Format in all cases: biochemical
[1] = target: T1, PRKD2 (Homo sapiens, UniProt Q9BZL6)
T1 construct: purchased ProQinase (Freiburg, Germany)
T1 sequence (Q9BZL6 1-878): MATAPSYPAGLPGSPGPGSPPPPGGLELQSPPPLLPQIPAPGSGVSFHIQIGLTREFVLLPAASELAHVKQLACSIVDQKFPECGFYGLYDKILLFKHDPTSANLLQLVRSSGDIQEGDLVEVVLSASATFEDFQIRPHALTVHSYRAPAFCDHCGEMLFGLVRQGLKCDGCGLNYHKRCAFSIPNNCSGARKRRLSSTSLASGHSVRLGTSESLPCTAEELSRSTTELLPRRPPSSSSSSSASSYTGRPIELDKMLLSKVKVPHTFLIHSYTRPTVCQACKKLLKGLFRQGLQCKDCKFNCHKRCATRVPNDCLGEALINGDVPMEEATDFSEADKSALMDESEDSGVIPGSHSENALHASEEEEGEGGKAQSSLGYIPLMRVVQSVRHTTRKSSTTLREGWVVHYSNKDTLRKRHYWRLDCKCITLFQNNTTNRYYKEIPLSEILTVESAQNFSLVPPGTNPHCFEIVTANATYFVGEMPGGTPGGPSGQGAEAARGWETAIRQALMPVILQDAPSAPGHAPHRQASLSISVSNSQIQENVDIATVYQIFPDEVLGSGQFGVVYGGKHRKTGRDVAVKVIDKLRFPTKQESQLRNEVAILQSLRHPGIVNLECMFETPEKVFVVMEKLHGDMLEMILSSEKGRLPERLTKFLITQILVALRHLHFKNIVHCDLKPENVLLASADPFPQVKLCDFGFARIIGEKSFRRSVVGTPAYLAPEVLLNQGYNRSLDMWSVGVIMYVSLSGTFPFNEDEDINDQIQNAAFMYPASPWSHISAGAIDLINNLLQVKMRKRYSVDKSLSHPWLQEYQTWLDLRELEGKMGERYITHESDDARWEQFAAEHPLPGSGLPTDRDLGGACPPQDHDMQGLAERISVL
Experimental: (§1) The analysis was performed by ProQinase (Freiburg, Germany).

[2] = target: T2, JAK3 (Homo sapiens, UniProt P52333)
T2 construct: purchased ProQinase (Freiburg, Germany)
T2 sequence (P52333 1-1124): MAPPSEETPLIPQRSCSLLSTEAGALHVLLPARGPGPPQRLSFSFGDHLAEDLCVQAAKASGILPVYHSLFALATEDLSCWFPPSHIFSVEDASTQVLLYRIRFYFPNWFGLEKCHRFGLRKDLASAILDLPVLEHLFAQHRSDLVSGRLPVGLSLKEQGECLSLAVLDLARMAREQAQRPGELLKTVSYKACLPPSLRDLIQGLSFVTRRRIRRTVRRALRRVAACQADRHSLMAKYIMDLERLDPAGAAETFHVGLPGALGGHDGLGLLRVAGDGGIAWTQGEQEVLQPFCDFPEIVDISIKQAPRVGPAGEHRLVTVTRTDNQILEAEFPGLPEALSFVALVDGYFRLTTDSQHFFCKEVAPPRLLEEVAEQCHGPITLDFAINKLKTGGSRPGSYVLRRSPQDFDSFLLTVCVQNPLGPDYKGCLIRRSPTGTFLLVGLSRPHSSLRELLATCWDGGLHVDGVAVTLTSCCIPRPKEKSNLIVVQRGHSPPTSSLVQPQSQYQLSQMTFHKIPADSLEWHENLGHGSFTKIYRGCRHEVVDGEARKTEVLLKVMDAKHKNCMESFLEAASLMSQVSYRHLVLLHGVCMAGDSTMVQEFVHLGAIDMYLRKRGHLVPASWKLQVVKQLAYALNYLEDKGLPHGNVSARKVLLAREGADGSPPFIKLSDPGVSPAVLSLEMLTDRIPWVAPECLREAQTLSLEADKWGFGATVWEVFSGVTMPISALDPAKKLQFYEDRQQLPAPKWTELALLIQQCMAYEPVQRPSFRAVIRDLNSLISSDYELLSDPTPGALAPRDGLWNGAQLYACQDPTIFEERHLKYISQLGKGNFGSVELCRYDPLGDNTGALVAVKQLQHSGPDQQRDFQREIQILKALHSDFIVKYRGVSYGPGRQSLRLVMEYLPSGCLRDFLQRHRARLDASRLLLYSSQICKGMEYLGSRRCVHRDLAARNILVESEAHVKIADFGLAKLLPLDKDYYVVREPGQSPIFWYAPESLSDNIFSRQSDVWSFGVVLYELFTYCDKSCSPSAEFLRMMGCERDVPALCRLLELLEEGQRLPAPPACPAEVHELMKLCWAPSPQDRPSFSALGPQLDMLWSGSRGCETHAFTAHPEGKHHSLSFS
Experimental: as §1

[3] = target: T3, CK2alpha2 (Homo sapiens, UniProt P19784)
T3 construct: purchased ProQinase (Freiburg, Germany)
Experimental: as §1

[4] = target: T4, PAK3 (Homo sapiens, UniProt O75914)
T4 construct: purchased ProQinase (Freiburg, Germany)
Experimental: as §1

[5] = target: T5, CDC7/DBF4 (Homo sapiens, UniProt O00311)
T5 construct: purchased ProQinase (Freiburg, Germany)
Experimental: as §1

[6] = target: T6, AuroraC (Homo sapiens, UniProt Q9UQB9)
T6 construct: purchased ProQinase (Freiburg, Germany)
T6 sequence (Q9UQB9 1-309): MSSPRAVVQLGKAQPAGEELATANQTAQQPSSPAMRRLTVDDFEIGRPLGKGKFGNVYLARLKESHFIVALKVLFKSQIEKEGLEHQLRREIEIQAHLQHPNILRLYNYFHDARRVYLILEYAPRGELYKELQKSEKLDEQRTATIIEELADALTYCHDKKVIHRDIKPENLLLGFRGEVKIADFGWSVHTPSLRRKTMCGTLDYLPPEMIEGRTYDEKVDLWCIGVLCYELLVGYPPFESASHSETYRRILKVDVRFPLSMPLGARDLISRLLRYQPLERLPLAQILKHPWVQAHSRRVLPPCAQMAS
Experimental: as §1

T3 sequence (P19784 whole entry): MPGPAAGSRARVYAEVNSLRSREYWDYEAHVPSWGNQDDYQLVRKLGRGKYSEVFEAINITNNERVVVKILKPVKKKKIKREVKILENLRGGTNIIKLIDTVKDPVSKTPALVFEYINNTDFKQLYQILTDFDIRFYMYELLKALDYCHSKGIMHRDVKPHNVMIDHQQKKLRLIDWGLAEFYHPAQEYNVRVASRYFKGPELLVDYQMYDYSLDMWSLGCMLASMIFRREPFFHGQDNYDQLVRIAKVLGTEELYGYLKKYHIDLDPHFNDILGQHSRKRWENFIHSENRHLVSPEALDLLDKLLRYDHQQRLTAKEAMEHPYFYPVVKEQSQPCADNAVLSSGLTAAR
T5 sequence (O00311 whole entry): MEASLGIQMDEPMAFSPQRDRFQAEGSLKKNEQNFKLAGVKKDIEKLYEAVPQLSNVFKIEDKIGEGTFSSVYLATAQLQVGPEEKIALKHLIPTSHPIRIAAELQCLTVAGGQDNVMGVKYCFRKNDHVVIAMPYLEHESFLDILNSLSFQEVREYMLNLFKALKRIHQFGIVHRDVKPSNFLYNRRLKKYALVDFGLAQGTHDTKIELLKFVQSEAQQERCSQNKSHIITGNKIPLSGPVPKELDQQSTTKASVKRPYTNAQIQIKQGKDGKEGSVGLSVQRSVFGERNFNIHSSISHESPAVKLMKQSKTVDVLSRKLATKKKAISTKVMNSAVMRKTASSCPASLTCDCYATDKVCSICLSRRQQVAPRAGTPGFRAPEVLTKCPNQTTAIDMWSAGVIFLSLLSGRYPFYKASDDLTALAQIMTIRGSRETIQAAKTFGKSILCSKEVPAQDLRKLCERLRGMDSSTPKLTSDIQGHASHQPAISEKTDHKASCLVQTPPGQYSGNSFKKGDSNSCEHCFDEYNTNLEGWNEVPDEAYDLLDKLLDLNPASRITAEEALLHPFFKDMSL
T5 sequence (Q9UBU7 whole entry partner): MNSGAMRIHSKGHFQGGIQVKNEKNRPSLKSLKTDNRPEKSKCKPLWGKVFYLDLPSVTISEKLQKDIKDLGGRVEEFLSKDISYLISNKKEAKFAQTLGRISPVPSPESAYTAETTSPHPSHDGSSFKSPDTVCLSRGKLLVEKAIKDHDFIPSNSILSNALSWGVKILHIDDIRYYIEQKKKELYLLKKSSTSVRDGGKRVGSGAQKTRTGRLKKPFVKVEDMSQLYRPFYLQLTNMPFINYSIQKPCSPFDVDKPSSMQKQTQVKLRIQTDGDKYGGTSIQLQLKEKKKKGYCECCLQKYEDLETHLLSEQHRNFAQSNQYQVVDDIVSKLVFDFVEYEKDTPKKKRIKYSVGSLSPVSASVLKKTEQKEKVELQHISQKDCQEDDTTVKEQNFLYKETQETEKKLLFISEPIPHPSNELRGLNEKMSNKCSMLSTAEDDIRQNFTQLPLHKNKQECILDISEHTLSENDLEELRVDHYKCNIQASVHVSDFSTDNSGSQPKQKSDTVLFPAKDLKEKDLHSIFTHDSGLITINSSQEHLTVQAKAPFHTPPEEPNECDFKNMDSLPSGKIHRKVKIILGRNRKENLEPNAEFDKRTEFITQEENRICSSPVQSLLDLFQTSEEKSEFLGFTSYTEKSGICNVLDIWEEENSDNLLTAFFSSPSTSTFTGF
T4 sequence (O75914 whole entry): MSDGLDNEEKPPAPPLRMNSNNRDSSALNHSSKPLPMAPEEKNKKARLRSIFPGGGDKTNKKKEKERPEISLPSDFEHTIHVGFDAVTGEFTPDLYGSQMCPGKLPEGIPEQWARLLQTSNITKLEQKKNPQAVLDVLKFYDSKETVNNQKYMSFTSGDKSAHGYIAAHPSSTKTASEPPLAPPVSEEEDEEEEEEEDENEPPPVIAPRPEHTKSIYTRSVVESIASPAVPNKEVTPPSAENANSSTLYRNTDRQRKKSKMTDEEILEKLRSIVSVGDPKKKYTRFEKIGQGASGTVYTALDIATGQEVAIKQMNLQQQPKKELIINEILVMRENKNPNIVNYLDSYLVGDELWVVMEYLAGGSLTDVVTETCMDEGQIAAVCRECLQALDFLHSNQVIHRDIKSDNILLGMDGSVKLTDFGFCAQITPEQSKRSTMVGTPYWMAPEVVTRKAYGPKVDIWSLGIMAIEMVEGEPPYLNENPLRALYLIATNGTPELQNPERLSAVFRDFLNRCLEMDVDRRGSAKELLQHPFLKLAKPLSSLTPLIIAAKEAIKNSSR

Row | Compound | Residual activity ([1]; 1.0E-05 M) | Residual activity ([1]; 1.0E-06 M) | Residual activity ([2]; 1.0E-05 M) | Residual activity ([2]; 1.0E-06 M) | Residual activity ([3]; 1.0E-05 M) | Residual activity ([3]; 1.0E-06 M) | Residual activity ([4]; 1.0E-05 M) | Residual activity ([4]; 1.0E-06 M) | Residual activity ([5]; 1.0E-05 M) | Residual activity ([5]; 1.0E-06 M) | Residual activity ([6]; 1.0E-05 M) | Residual activity ([6]; 1.0E-06 M)
1 | O=C(Cc1ccccc1)Nc1ccc(F)c(Nc2ccc3c(c2)CCCCC3=O)c1 [Compound 100] | 92 % of control | 87 % of control | 75 % of control | 80 % of control | 134 % of control | 137 % of control | 74 % of control | 88 % of control | 93 % of control | 98 % of control | 101 % of control | 110 % of control
2 | O=C(Nc1ccc(F)c(Nc2ccc3c(c2)CCCCC3=O)c1)c1cccc(F)c1 [Compound 109] | 81 % of control | 82 % of control | 79 % of control | 83 % of control | 118 % of control | 119 % of control | 79 % of control | 92 % of control | 91 % of control | 96 % of control | 101 % of control | 99 % of control
